BindingDB's records for doi:10.1021/jm990397l (University of Groningen, 2000)

Target: 5-HT1D receptor (Bos taurus)
Experiment: Inhibition affinity against 5-HT-1D receptor in bovine caudate nucleus using radio binding assay

IC50: > 1000 nM
Compound: Cc1nc(-c2ccc(-c3ccc(C(=O)Nc4ccc(OS(=O)(=O)C(F)(F)F)c(N5CCN(C)CC5)c4)cc3)c(C)c2)no1 [Trifluoro-methanesulfonic acid 4-{[2'-methyl-4'-(5-methyl-[1,2,4]oxadiazol-3-yl)-biphenyl-4-carbonyl]-amino}-2-(4-methyl-piperazin-1-yl)-phenyl ester]
